Assay [1] has as its system LNCaP. Briefly: Concentration required to inhibit growth of human LNCaP prostate cancer cells. In kind it is functional.
The test system of assay [2] is LNCaP. Briefly: Concentration required to inhibit human LNCaP prostate carcinoma cells. In kind it is functional, cell-based.

The IC50 is the point on the concentration scale where inhibition reaches its midpoint.

`CC1=C(/C=C/C(C)=C/C=C/C(C)=C/C(=O)Nc2ccc(O)cc2)C(C)(C)CCC1n1ccnc1` (configuration not stated) returned a Growth inhibition in assay [1] of 5 µM. For the same compound, the IC50 in assay [2] is 5.5 µM.

For the origin of these results see ChEMBL document CHEMBL1140349, “A new simple and high-yield synthesis of suberoylanilide hydroxamic acid and its inhibitory effect alone or in combination with retinoids on proliferation of human prostate cancer cells” (J Med Chem, 2005).
